Entries after “also recorded” stand apart in the source; their conditions may differ.
Legend:
SSAO [1] = target: T1, SSAO (Homo sapiens, UniProt Q16853); experiment: Plasma SSAO/amine oxidase activity and methylamine after a single dose of Compound 1; format: in vivo
T1 construct: from tissue; host or cells: human plasma from dosed participants
T1 sequence (Q16853 29-763 limits assumed): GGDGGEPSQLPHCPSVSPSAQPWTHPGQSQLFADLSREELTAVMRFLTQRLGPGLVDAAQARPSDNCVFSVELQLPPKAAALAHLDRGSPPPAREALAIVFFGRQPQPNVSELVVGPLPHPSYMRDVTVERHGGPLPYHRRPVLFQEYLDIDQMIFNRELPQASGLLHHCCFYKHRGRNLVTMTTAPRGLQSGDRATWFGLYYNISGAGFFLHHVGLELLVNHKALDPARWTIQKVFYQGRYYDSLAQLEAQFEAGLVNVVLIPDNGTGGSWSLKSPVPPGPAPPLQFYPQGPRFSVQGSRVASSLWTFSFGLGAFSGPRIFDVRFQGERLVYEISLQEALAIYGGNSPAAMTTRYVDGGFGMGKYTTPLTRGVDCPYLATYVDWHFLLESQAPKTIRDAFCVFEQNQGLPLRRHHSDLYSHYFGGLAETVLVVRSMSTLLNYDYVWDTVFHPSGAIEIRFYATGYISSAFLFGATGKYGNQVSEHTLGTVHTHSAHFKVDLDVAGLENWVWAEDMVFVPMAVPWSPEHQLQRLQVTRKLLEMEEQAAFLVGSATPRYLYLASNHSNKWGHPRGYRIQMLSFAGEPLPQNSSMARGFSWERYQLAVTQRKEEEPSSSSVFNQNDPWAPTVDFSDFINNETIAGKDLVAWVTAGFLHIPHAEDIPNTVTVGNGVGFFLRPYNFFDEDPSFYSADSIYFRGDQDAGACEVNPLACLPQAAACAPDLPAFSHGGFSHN
Experimental: Safety was assessed for 7 (±3) days after dosing.
Plasma PK parameters were determined by non-compartmental analysis.
SSAO-specific amine oxidase levels in plasma were determined using a kinetic-based assay essentially as described previously (Schilter et al). Endogenous monoamine oxidases A and B were inhibited by adding pargyline to plasma samples prior to measuring H2O2 generation levels in placebo and active recipients.

SSAO [2] = target: T1, SSAO; experiment: Plasma SSAO activity and methylamine, multiple doses of Compound 1; format: in vivo
Experimental: A multiple-ascending dose clinical trial of Compound 1 was performed.

[3] = Single-ascending dose trial of Compound 1 in healthy participants: safety and plasma PK
Experimental: SSAO inhibition was determined by measuring relative reductions in plasma H2O2 generation after addition of an exogenous substrate (benzylamine). […] Safety was assessed for 7 (±3) days after dosing.
Plasma PK parameters were determined by non-compartmental analysis. […] Percent change in total amine oxidase activity was determined relative to the corresponding pre-dose (baseline) samples.

[4] = Pharmacokinetic evaluation in SD rats; format: in vivo, rat; conditions: 2.0 mg/kg intragastric
Experimental: Drug Preparation: a certain amount of the drug was taken and added into a 2% Klucel LF+0.1% Tween 80 aqueous solution, to prepare a clear solution or a uniform suspension.
Dosage: SD rats were fasted overnight and given the drug by intragastric infusion at an administrated dose of 2 mg/kg and an administrated volume of 10 mL/kg each.
Operation: rats were dosed by intragastric infusion with the compounds. […] The heparinized sample tubes were then stored at −20° C., and the rats were allowed to eat food 2 h after the dosage.
Determination of contents of the compounds to be tested in the plasma of rats after intragastric infusion of the drugs at different concentrations: the plasma samples were thawed at room temperature, 50 μL each was taken and added into 130 μL of an internal standard working solution (1000 ng/mL, acetonitrile, tolbutamide), and the mixture was whirled for about 1 min and then centrifugated at 4° C. and 13000 rpm for 10 min. 50 μL of the supernatant was taken and mixed with 100 μL of 50% acetonitrile water, and then introduced for LC/MS/MS analysis.

[5] = Capsule pharmacokinetics in beagle dogs; format: in vivo, dog
Experimental: To determine the effect of the solubilizer on the uptake of compound 2, 50 mg (based on free acid) Compound 2 was formulated in a capsule with or without 5 wt % SLS (see Table 10) and was administered to fasted beagle dogs pre-treated with pentagastrin (6 μg/kg, administered by intramuscular injection 30±2 minutes prior to administration of compound 2). The plasma concentration of compound 2 was measured over 24 hours (see FIG. 9).
To determine the pH effect on PK performance, beagle dogs were divided into two groups (n=3 per group). For group 1, dogs were pre-treated with pentagastrin (6 μg/kg, intramuscular injection 30±2 minutes prior to administration of compound 2). For group 2, dogs were pre-treated with famotidine (2 tablets, 20 mg/tablet, oral administration 180±10 minutes prior to administration of compound 2). Compound 2 (10 mg capsule, 5% SLS) was administered, and plasma concentrations of compound 2 were monitored for 24 h and are depicted in FIG. 10. […] To determine the food effect on PK performance, beagle dogs were divided into two groups (n=3 per group). For the fasted group, dogs were fasted overnight through 4-hours post dosing. For the fed group, dogs were fed high fat food 30 minutes prior to administration. Plasma concentrations of compound 2 were monitored for 24 h. Compound 2 (10 mg capsule, 5% SLS) was administered, and plasma concentrations of compound 2 were monitored for 24 h and are depicted in FIG. 11.

[6] = all single-dose cohorts, 1-10 mg or placebo (n = 32)
[7] = single dose 1 mg or placebo (n = 8)
[8] = single dose 3 mg or placebo (n = 8)
[9] = single dose 6 mg or placebo (n = 8)
[10] = single dose 10 mg or placebo (n = 8)

With `COC1CCN(c2ncc(OC/C(=C/F)CN)cn2)CC1` [Compound 1, (E)-3-fluoro-2-(((2-(4-methoxypiperidin-1-yl)pyrimidin-5-yl)oxy)methyl)prop-2-en-1-amine] as the compound, how does the “inhibition of plasma SSAO activity” value (SSAO [1]; 4 hours post-dose, all dose cohorts (1-10 mg)) read?
Its value is “Near complete inhibition”.

What about the “duration of suppression of plasma SSAO activity after a single dose” value (SSAO [1]; single dose 1-10 mg) of the same compound?
Its value is “up to 1 week”.

And the “plasma methylamine (MMA)” value (SSAO [1]; single dose 1-10 mg)?
The value was “Maximum plasma MMA levels increased; also recorded: Dose-dependent increases”.

What about the “suppression of plasma VAP-1/SSAO-specific amine oxidase activity” value (SSAO [2]; 10 mg, healthy participants (Example 2)) of the same compound?
The value was > 90%.

What about the “inhibition of plasma SSAO activity” value (SSAO [2]; Day 1, all dose cohorts) of the same compound?
Its value is “Near complete inhibition”.

And the plasma methylamine levels (SSAO [2]; first daily dose 1, 4, 10 mg)?
Its plasma methylamine levels is “increased in a dose proportional manner”.

What about the “duration of inhibition of plasma SSAO amine oxidase activity after cessation of dosing” value (SSAO [2]; multiple QD doses) of the same compound?
Its value is “up to 2 weeks”.

What about the “Subject incidence of TEAEs considered possibly treatment-related” value [3, 6] of the same compound?
The value was 1 (3.1).

What about the “Subject incidence of any TEAE” value [3, 6] of the same compound?
The value was 5 (15.6).

And the “TEAE frequency: constipation” value [3, 6]?
The value was 1 (3.1).

And the “TEAE frequency: contact dermatitis” value [3, 6]?
The value was 2 (6.3).

And the “TEAE frequency: dysgeusia” value [3, 6]?
The value was 1 (3.1).

And the “TEAE frequency: headache” value [3, 6]?
Its value is 1 (3.1).

And the “TEAE frequency: sore throat” value [3, 6]?
The value was 1 (3.1).

What about the “TEAE frequency: upper respiratory tract infection” value [3, 6] of the same compound?
Its value is 1 (3.1).

What about the “Subject incidence of TEAEs considered possibly treatment-related” value [3, 7] of the same compound?
The value was 0.

What about the “Subject incidence of any TEAE” value [3, 7] of the same compound?
The value was 0.

What about the “TEAE frequency: constipation” value [3, 7] of the same compound?
The value was 0.

And the “TEAE frequency: contact dermatitis” value [3, 7]?
Its value is 0.

What about the “TEAE frequency: dysgeusia” value [3, 7] of the same compound?
Its value is 0.

And the “TEAE frequency: headache” value [3, 7]?
The value was 0.

What about the “TEAE frequency: sore throat” value [3, 7] of the same compound?
Its value is 0.

What about the “TEAE frequency: upper respiratory tract infection” value [3, 7] of the same compound?
The value was 0.

And the “Subject incidence of TEAEs considered possibly treatment-related” value [3, 8]?
Its value is 0.

What about the “Subject incidence of any TEAE” value [3, 8] of the same compound?
The value was 0.

What about the “TEAE frequency: constipation” value [3, 8] of the same compound?
Its value is 0.

What about the “TEAE frequency: contact dermatitis” value [3, 8] of the same compound?
The value was 0.

What about the “TEAE frequency: dysgeusia” value [3, 8] of the same compound?
The value was 0.

And the “TEAE frequency: headache” value [3, 8]?
The value was 0.

What about the “TEAE frequency: sore throat” value [3, 8] of the same compound?
The value was 0.

And the “TEAE frequency: upper respiratory tract infection” value [3, 8]?
Its value is 0.

What about the “Subject incidence of TEAEs considered possibly treatment-related” value [3, 9] of the same compound?
The value was 0.

What about the “Subject incidence of any TEAE” value [3, 9] of the same compound?
The value was 2.

And the “TEAE frequency: constipation” value [3, 9]?
Its value is 0.

What about the “TEAE frequency: contact dermatitis” value [3, 9] of the same compound?
The value was 2.

And the “TEAE frequency: dysgeusia” value [3, 9]?
Its value is 0.

What about the “TEAE frequency: headache” value [3, 9] of the same compound?
The value was 0.

And the “TEAE frequency: sore throat” value [3, 9]?
Its value is 1.

And the “TEAE frequency: upper respiratory tract infection” value [3, 9]?
The value was 0.

What about the “Subject incidence of TEAEs considered possibly treatment-related” value [3, 10] of the same compound?
The value was 1 (12.5).

What about the “Subject incidence of any TEAE” value [3, 10] of the same compound?
The value was 3 (37.5).

And the “TEAE frequency: constipation” value [3, 10]?
Its value is 1 (12.5).

And the “TEAE frequency: contact dermatitis” value [3, 10]?
The value was 0.

And the “TEAE frequency: dysgeusia” value [3, 10]?
The value was 1 (12.5).

And the “TEAE frequency: headache” value [3, 10]?
The value was 1 (12.5).

And the “TEAE frequency: sore throat” value [3, 10]?
The value was 0.

And the “TEAE frequency: upper respiratory tract infection” value [3, 10]?
Its value is 1 (12.5).

And the “plasma PK exposure, dose proportionality” value ([3]; single dose, between 1 and 10 mg)?
Its value is “greater than dose proportional”.

What about the safety and tolerability ([3]; single oral dose 1 mg to 10 mg) of the same compound?
The safety and tolerability was “No clinically relevant adverse events or laboratory abnormalities; also recorded: safe and well tolerated”.

What does the source list for `N#Cc1nn(-c2cc(Cl)c(Oc3n[nH]c(=O)c4ccccc34)c(Cl)c2)c(=O)[nH]c1=O` [Compound 2, 2-(3,5-dichloro-4-((4-oxo-3,4-dihydrophthalazin-1-yl)oxy)phenyl)-3,5-dioxo-2,3,4,5-tetrahydro-1,2,4-triazine-6-carbonitrile]?
Curve area [4]: 24.79 ± 3.704 µg·h/mL; Peak blood drug concentration [4]: 2007 ± 106 ng/mL; Time to peak [4]: 4.67 ± 1.15 h; half-life ([4]; male, rat, plasma, po): 4.56 ± 0.42 h; food effect on PK performance ([5]; 10 mg capsule, 5% SLS, fasted vs high fat food): delayed Compound 2 Tmax but did not have an impact on the plasma exposure; pH effect on PK performance ([5]; 10 mg capsule, 5% SLS, pentagastrin vs famotidine pre-treatment): Minimal pH effect; increase of exposure (Cmax, AUC) by formulation with 5 wt % SLS ([5]; 50 mg capsule with vs without 5 wt % SLS, fasted beagle dogs): more than 70%

From patent US20230241071A1, “COMBINATION TREATMENT OF LIVER DISORDERS” (Terns Pharmaceuticals, Inc., priority 2021, published 2023)
